Experiments:
Stability in mouse blood = assay type: in vitro ADME; conditions: on ice, percent unchanged test compound
Experimental: (§1) Stability of compounds were determined in fresh human whole blood with K2EDTA as the anticoagulant (stored refrigerated at 2-8° C. and used within 7 days of receipt). The experiment was conducted with three replicates for each time point. Whole blood, pre-incubated at 37° C. for 10-15 minutes, was fortified with a solution of test compound for a final concentration of 0.5 μM and mixed for 30 sec. At intervals (0, 0.5, 1 and 2 hr), three 50 μL aliquots were combined with 200 μL (each) of an ice-cold solution of the internal standard (carbutamide 500 ng/mL in acetonitrile). The samples were vortexed for 30 sec and then centrifuged at 16,100 g for 5 min. The supernatant was analyzed by LC-MS/MS. The MS peak area ratio of the test compounds versus the internal standard was calculated and percent unchanged test compound was calculated for each time point using this ratio.
The stability in mouse blood was determined on ice at 0, 0.5 and 1 hr as herein.

fresh human hepatocytes = assay: Release of active metabolite in fresh human hepatocytes; assay type: in vitro ADME; conditions: 10 μM compound; for FHH TP Cmax: fresh human hepatocytes; for FHH TP AUC: fresh human hepatocytes, 6, 24 and 48 hours
In short: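 Overnight-acclimatized hepatocytes (0.8 million cells/well human, 0.5 million mouse) incubated at 37 °C with 10 μM test compound (0.1% DMSO). Sampled at 6, 24, 48 h (human) or 1, 4, 8, 12, 24 h (mouse); cells washed, extracted in cold 70% methanol, intracellular content quantified by LC-MS/MS with internal standard.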

[1] = Liver pharmacokinetics following a single oral dose in CD-1 mice; assay type: in vivo; conditions: single oral dose 25 mg/kg in PEG 200, CD-1 male mice; given at 1 μmol/kg; 25 mg/kg
Experimental: (§2) A single oral dose of test compound at 25 mg/kg in PEG 200 (dose volume 5 mL/kg) was administered to nine CD-1 male mice. Five untreated animals were used for the collection of control plasma and liver. Terminal plasma and liver samples were collected from three animals per time point at 4, 12 and 24 hours post dose. Liver specimens were collected from all animals immediately after the incision. Freezing forceps stored in liquid nitrogen were used to freeze the liver before excision.
Liver samples were analyzed for the active species 2′-methylguanosine triphosphate (2′-MeGTP) by LC-MS/MS. 2′-MeGTP levels were assayed by homogenizing (on ice) a known weight of mouse liver with 4× volume of 0.95 M trichloroacetic acid (TCA). Internal standard solution was added to the homogenate followed by neutralization with 20% ammonium hydroxide solution and addition of 500 μL 1% formic acid. The tissue samples were extracted by weak anion exchange solid phase extraction (SPE). Post extraction, the eluates were evaporated under nitrogen, followed by reconstitution before injection onto the LC-MS/MS system. The samples were chromatographed on a Luna NH2 column using a gradient system of ammonium acetate (1 mM to 20 mM and pH 8.0 to pH 10.0) in water and acetonitrile (70:30). The analyte was detected and quantified by tandem mass spectrometry in positive ion mode on an API4000 equipped with a Turbo Ionspray® interface. The calibration range was 10 to 10000 pmol/mL in mouse liver homogenate (50 to 50000 pmol/g of mouse liver).

mouse hepatocytes = assay: Release of active metabolite in mouse hepatocytes; assay type: in vitro ADME; conditions: 10 μM compound
Experimental: Plates of fresh human and mouse hepatocytes were obtained on ice. The medium was removed and replaced with hepatocyte culture medium (William's E supplemented with penicillin-streptomycin, 1% L-glutamine, 1% insulin-transferrin-selenium and 0.1 μM Dexamethasone (Invitrogen) or with Invitro GRO HI medium complemented with Torpedo antibiotics (Celsis)). Cells were left overnight in an incubator at 37° C. to acclimatize to culture and the medium.
Hepatocyte incubations were conducted at a final volume of 0.5 mL hepatocyte culture medium/well (0.8 million cells/well for human and 0.5 million cells/well for mouse; 12 well plate no overlay, collagen coat). Culture medium from overnight incubation of cells was removed and replaced with fresh medium, pre-warmed to 37° C., containing 10 μM of test compound from a stock solution in DMSO (final DMSO concentration was 0.1%). At each specific time point, incubation medium was removed and cell monolayers were carefully washed two times with ice-cold PBS. Following the last wash, all PBS was carefully removed and 1.0 mL of extraction solution (ice-cold 70% methanol/30% water) added. Cells were scraped off and suspended in the extraction solution, transferred to 2 mL polypropylene microfuge tubes and intracellular contents extracted overnight at −20° C.
After the overnight treatment the cellular extracts were prepared by centrifugation at 16,000×g for 10 min to remove cellular debris. The remaining sample was then dried using a refrigerated centrivap concentrator. Dry extracts were reconstituted in 1000 μL of HPLC-grade water and centrifuged at 16,000×g for 10 min. Aliquots (100 μL each) of the supernatant were transferred into a 96 well plate and internal standard (4 ng/mL final concentration) was added as the internal standard (IS) for LC-MS/MS analysis.
The incubation time points were 6, 24 and 48 hours for human hepatocytes and 1, 4, 8, 12 and 24 hours for mouse hepatocytes.

[2] = Stability in simulated gastric fluid; assay type: in vitro ADME; conditions: 100 μM, 2 hours at 37° C., percent of the peak area at time zero
Experimental: (§3) Simulated gastric and intestinal fluids containing pepsin and pancreatin respectively were prepared according to the U.S. Pharmacopoeia USP291 procedure (www.pharmacopeia.cn/v29240/usp29nf24s0_ris1s126.html). Compounds (final concentration 100 μM) were incubated in duplicate in the appropriate fluid for 2 hours at 37° C. The samples were quenched with 200 μl cold acetonitrile, vortexed for 30 seconds and then centrifuged at 16,100 g for 10 min. The supernatants were analyzed by HPLC on a C-18 column with UV detection at 252 nm. The time 0 samples were prepared by adding SGF or SIF fluid to the quenching solvent followed by the test compound. Stability of the compounds was determined by peak area of the test compounds after incubation and calculated as percent of the peak area observed at time zero.

in vitro = conditions: human, HCV Replicon CC50, Zluc cells, CellTiter-Blue
[3] = Plasma pharmacokinetics following a single oral dose in CD-1 mice; assay type: in vivo; conditions: single oral dose 25 mg/kg in PEG 200, CD-1 male mice; given at 1 μmol/kg; 25 mg/kg
Experimental: as §2
Plasma samples were analyzed for 2′-methylguanosine (2′-MeG) by LC-MS/MS. The internal standard (IS) was 2′-MeG-D3. For protein precipitation and extraction, each plasma sample (50 μL) was treated with 500 μL of 0.2% formic acid in acetonitrile and 20 μL of the internal standard working solution. After vortexing and centrifugation, 500 μL of the sample extracts were transferred to a new plate, dried under N2 at ˜28° C. and reconstituted with 75 μL of 0.2% FA in water. The extracts were chromatographed on an Aquasil C18 column using a gradient system of 0.2% formic acid in water and acetonitrile. The analytes were detected and quantified by tandem mass spectrometry in positive ion mode on an MDS Sciex API5000 equipped with a Turbo Ionspray® interface. The calibration range was 0.500 (LLOQ) to 200 ng/mL in mouse plasma.

HCV genotype 1b replicon = assay: HCV Replicon Assay; assay type: cell-based; conditions: Hepatitis C virus, 72 h, Zluc cells (Huh-7-derived, HCV genotype 1b replicon, luciferase reporter), 72 hours; read-out: HCV Replicon EC50
In short: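 Zluc Huh-7 cells with HCV genotype 1b replicon and luciferase reporter treated with 5-fold dilutions (100 μM to 0.0000512 μM final) in duplicate, or at 1 and 10 μM. Luminescence read with ONE-glo; EC50 from dose-response fits, or % inhibition at the fixed concentrations.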

[4] = Stability in fresh human whole blood; assay type: in vitro ADME; conditions: 0.5 μM, percent unchanged test compound
Experimental: as §1

[5] = Stability in simulated intestinal fluid; assay type: in vitro ADME; conditions: 100 μM, 2 hours at 37° C., percent of the peak area at time zero
Experimental: as §3

Huh-7 cells = assay: Release of active metabolite in Huh-7 cells; assay type: in vitro ADME, human; conditions: 10 μM compound
Experimental: Huh-7 cells were plated in 1 mL culture medium (DMEM, containing glucose, L-glutamine and sodium pyruvate, 10% FBS, 100 IU/mL penicillin, 100 μg/mL streptomycin, 2 mM GlutaMAX, 1% MEM non-essential amino acids) at the concentration 0.8, 0.4 and 0.2 million cells per well on 6 well plates for 24, 48 and 72 hr treatment, respectively. Plated cells were incubated overnight at 37° C. in an incubator.
The following morning compounds was diluted to 20 μM from a stock solution in DMSO in fresh culture medium pre-warmed to 37° C. and 1 mL of the solution/well was added to cells. A final medium volume per well was 2.0 mL, Compound concentration in well was 10 μM and final DMSO concentration was 0.1%.
After 24, 48 or 72 hr, the medium was carefully removed and cell monolayers were washed twice with 2 mL ice-cold PBS per well. Following the last wash, all PBS was carefully removed and 1.0 mL of extraction solution (ice-cold 70% methanol) added. The plate was tightly covered with Parafilm, plastic plate cover and Parafilm again and an intracellular content was extracted at −20° C. for 24 hr.
After 24 hr extracts were transferred into polypropylene microfuge tubes and dried on a refrigerated centrivap concentrator. Dry residues were reconstituted in 250 μL of HPLC-grade water and centrifuged at 16,000×g for 10 min. Aliquots (100 μL each) of the supernatants were transferred into a 96 well plate and internal standard (4 ng/mL final concentration) was added as the internal standard (IS) for LC-MS/MS analysis.

| SMILES | Stability WB_Mouse (ice; 1 hr) (Stability in mouse blood) | FHH TP Cmax (fresh human hepatocytes) | FHH TP AUC (fresh human hepatocytes) | Ms Liver 2′-MeGTP AUC [1] | MsH Cmax (mouse hepatocytes; mouse hepatocytes) | MsH AUC (mouse hepatocytes; mouse hepatocytes, 1, 4, 8, 12 and 24 hours) | Stability SGF [2] | CC50 (in vitro) | Ms Plasma 2′-MeG AUC [3] | Ms Plasma 2′-MeG Cmax [3] | EC50 (HCV genotype 1b replicon) | Stability WB_Human (37° C.; 2 hr) [4] | Stability SIF [5] | Huh-7 TP (24 hr) (Huh-7 cells; 24 hr) | Huh-7 TP (48 hr) (Huh-7 cells; 48 hr) | Huh-7 TP (72 hr) (Huh-7 cells; 72 hr) | Huh-7 TP AUC (Huh-7 cells; Huh-7 cells) |
| --- | --- | --- | --- | --- | --- | --- | --- | --- | --- | --- | --- | --- | --- | --- | --- | --- | --- |
| CCOc1nc(N)nc2c1ncn2[C@@H]1O[C@@H]2COP(=O)(OCCSC(=O)C(C)(C)CO)O[C@H]2[C@@]1(C)F (single isomer, unassigned) [Compound 5 Diastereomer 1] | 99% | 204 pmol/mill cells | 7185 pmol · hr/mill cells | 1200 pmol · hr/g at 1 μmol/kg | 374 pmol/mill cells | 9866 pmol · hr/mill cells | 108% | > 50 µM | 97 pmol · hr/mL at 1 μmol/kg | 8.1 pmol/mL at 1 μmol/kg | < 250 nM | 82% | 86% |  |  |  |  |
| CCOc1nc(N)nc2c1ncn2[C@@H]1O[C@@H]2COP(=O)(OCCSSC(C)(C)C)O[C@H]2[C@@]1(C)F (single isomer, unassigned) [Compound 24 Diastereomer 1] |  | 154 pmol/mill cells | 3399 pmol · hr/mill cells |  |  |  | 87% | < 50 µM |  |  | < 250 nM | 91% | 90% |  |  |  |  |
| CCOC(=O)CCCOP1(=O)OC[C@H]2O[C@@H](n3cnc4c(OC)nc(N)nc43)[C@](C)(O)[C@@H]2O1 (single isomer, unassigned; diastereomer 1) [Compound 25 Diastereomer 1] |  | 1137 pmol/mill cells | 2245 pmol · hr/mill cells |  |  |  |  |  |  |  |  |  |  | 25 | 28 | 36 | 1697 pmol/mill cells |

— patent US9296778B2, “3′,5′-cyclic phosphate prodrugs for HCV infection” (Idenix Pharmaceuticals, Inc., priority 2012, dated 2016)
